Results on one compound are retold here after patent US5744469A, “Method for treating dermatitis” (Eli Lilly and Company, priority 1996, dated 1998).

For data set [1], the system named is conditioned avoidance response. The note with it: rats; cited from earlier work.
Another data set concerns fungal dermatitis. As to the kind of experiment: double-blind, randomized, placebo and haloperidol-controlled clinical trial. The data set is classed as in vivo. The note with it: human, 15±2.5 mg/day vs haloperidol (15±5 mg/day), double-blind extension treatment phase. How it is done:
Such effectiveness for the treatment, amelioration of fungal dermatitis was shown in the following clinical trial:
The study was a double-blind, randomized, parallel, placebo and haloperidol-controlled study of 55 human subjects. The study was conducted in 23 study centers throughout the United States and Canada. […] The acute phase lasted for 6 weeks with evaluations performed weekly followed by a double-blind extension phase of at least one year.

Data set [2] in a line: detection of radiolabelled compound in saliva. It counts as in vivo. As for the experimental part: For example, in the treatment of adult humans, dosages of from about 5 to 20 mg per day may be used. A once a day dosage is normally sufficient, although divided doses may be administered. For treatment of fungal dermatitis in a human, a dose range of from about […], preferably 5 to 20 mg per day is suitable.

The test system of data set [3] is apomorphine-induced climbing behavior and hypothermia. Conditions: mice; cited from earlier work.

`Cc1cc2c(s1)Nc1ccccc1N=C2N1CCN(C)CC1` [2-methyl-4-(4-methyl-1-piperazinyl)-10H-thieno[2,3-b][1,5]benzodiazepine]: the conditioned avoidance response result in data set [1] is reported as “inhibits”. Moreover, the “occurrence of fungal dermatitis versus haloperidol” value in the data set with fungal dermatitis is recorded as “statistically significantly less frequently”. Also, the “detection in the saliva” value in data set [2] was “can be detected in the saliva”. Besides, in data set [3], the apomorphine-induced climbing behavior entry is “antagonized” and the apomorphine-induced hypothermia result is reported as “antagonized”.
